Source: patent US11840545B1, “Spirooxindole-copper complex as novel efficient anticorrosion agent for C-steel” (KING FAISAL UNIVERSITY, priority 2023, dated 2023)

Legend:
[1] = Impedance study of corrosion inhibition, equivalent circuit model CPE with Diffusion; conditions: for IE: impedance, C-steel, 1M HCl, 298 K; for % inhibition from Impedance: summary Table 16, C-steel in 1 M HCl; for % Inhibition from Impedance studies: summary Table 17, C-steel in 1 M HCl
Text: (§1) In an embodiment, the thus formed CuL copper complex can undergo anticorrosion studies by adding the obtained CuL copper complex to hydrochloric acid (for example, at 1M) using a C-steel electrode.
(§2) The % inhibition of Spiro compounds SP34, SP37 and SP311 and their copper complexes for C-steel in hydrochloric acid solution (1M) were computed by Impedance and Polarization studies. The model used for the electrochemical equivalent circuit to fit the impedance for anticorrosion studies of Carbon steel (C-steel) by Spiro inhibitors was CPE with diffusion as shown in FIG. 7.

[2] = Polarization (Tafel) study of corrosion inhibition; conditions: for IE: polarization, C-steel, 1M HCl, 298 K; for % inhibition from Tafel: summary Table 16, C-steel in 1 M HCl; for % Inhibition from Tafel plots: summary Table 18, C-steel in 1 M HCl
Text: as §1, §2

## Cc1[nH]nnc1C(=O)[C@H]1[C@H](c2ccc(Cl)cc2Cl)C2CSCN2[C@]12C(=O)Nc1cc(Cl)ccc12 (stereo partly drawn) [SP 34, (3R,6'S,7′R)-6-chloro-7′-(2,4-dichlorophenyl)-6′-(5-methyl-1H-1,2,3-triazole-4-carbonyl)-1′,6′,7′,7a′-tetrahydro-3′H-spiro[indoline-3,5′-pyrrolo[1,2-c]thiazol]-2-one]
[1]; 0.037 mM
  IE: 82.48%
[1]; 0.075 mM
  IE: 94.25%
[1]; 0.112 mM
  IE: 97.37%
[1]
  % inhibition from Impedance: 96.97%
  % Inhibition from Impedance studies: 96.97%
[2]; 0.037 mM
  IE: 90.5%
[2]; 0.075 mM
  IE: 97.1%
[2]; 0.112 mM
  IE: 98.6%
[2]
  % inhibition from Tafel: 98.6%
  % Inhibition from Tafel plots: 98.6%

## Cc1[nH]nnc1C(=O)[C@H]1[C@H](c2cccc([N+](=O)[O-])c2)C2CSCN2[C@]12C(=O)Nc1cc(Cl)ccc12 (stereo partly drawn) [SP 37, (3R,6'S,7′R)-6-chloro-6′-(5-methyl-1H-1,2,3-triazole-4-carbonyl)-7′-(3-nitrophenyl)-1′,6′,7′,7a′-tetrahydro-3′H-spiro[indoline-3,5′-pyrrolo[1,2-c]thiazol]-2-one]
[1]; 0.039 mM
  IE: 21.25%
[1]; 0.078 mM
  IE: 46.85%
[1]; 0.117 mM
  IE: 56.53%
[1]
  % inhibition from Impedance: 56.53%
  % Inhibition from Impedance studies: 56.53%
[2]; 0.039 mM
  IE: 49.0%
[2]; 0.078 mM
  IE: 72.7%
[2]; 0.117 mM
  IE: 82.1%
[2]
  % inhibition from Tafel: 82.1%
  % Inhibition from Tafel plots: 82.1%

## Cc1[nH]nnc1C(=O)[C@H]1[C@H](c2cccc(Br)c2)C2CSCN2[C@]12C(=O)Nc1cc(Cl)ccc12 (stereo partly drawn) [SP 311, (3R,6'S,7′R)-7′-(3-bromophenyl)-6-chloro-6′-(5-methyl-1H-1,2,3-triazole-4-carbonyl)-1′,6′,7′,7a′-tetrahydro-3′H-spiro[indoline-3,5′-pyrrolo[1,2-c]thiazol]-2-one]
[1]; 0.036 mM
  IE: 14.26%
[1]; 0.073 mM
  IE: 8.96%
[1]; 0.109 mM
  IE: 62.89%
[1]
  % inhibition from Impedance: 62.89%
  % Inhibition from Impedance studies: 62.89%
[2]; 0.036 mM
  IE: −1.5%
[2]; 0.073 mM
  IE: 13.0%
[2]; 0.109 mM
  IE: 81.6%
[2]
  % inhibition from Tafel: 81.6%
  % Inhibition from Tafel plots: 81.6%
